Experimental data taken from PMC9573696, “Experimental Examination of Solubility and Lipophilicity as Pharmaceutically Relevant Points of Novel Bioactive Hybrid Compounds” (Molecules, 2022).

Test: Partition in system 1-octanol/buffer pH 7.4, shake-flask method
Format: physicochemical
Conditions: for sb × 10^6 (concentration in buffer) / so × 10^3 (concentration in 1-octanol) / xb × 10^7 (mole fraction in buffer) / xo × 10^4 (mole fraction in 1-octanol) / logPo/b / sb × 10^5 (concentration in buffer) / so × 10^4 (concentration in 1-octanol) / xo × 10^5 (mole fraction in 1-octanol): 1-octanol/buffer pH 7.4; for logPo/b / logD at 2 days: from concentrations in mol∙L^−1; for logP at 2 days: from concentrations in mole fraction
Experimental: The partition coefficients of the new hybrid compounds in the model system 1-octanol/buffer pH 7.4 as a lipophilicity surrogate were determined experimentally. […] It is the lipophilic properties that allow the hybrids to move from the water phase to the less hydrophilic octanol phase, where the solute–solvent intermolecular interactions are more favourable. According to the results shown in Table 5, the order of changes in the partition coefficients logPo/b at T = 298.15 K, depending on the substituent nature, is expressed as the inequality: Cl- (1.65) < F- (2.40) < CH3- (2.50). Compounds I and II are the most lipophilic in the series of the studied substances, whereas the introduction of a chlorine atom considerably lowers the partition coefficient (~0.8 log units). This fact agrees with the common concept that lipophilic groups are usually hydrocarbon or fluorine-containing radicals. […] For drugs with such partition coefficients, there is a good balance between the solubility and permeability through passive diffusion and minimum metabolism due to the low binding capacity with enzymes.
The octanol/buffer pH 7.4 partition coefficient logPO/B is measured in a static mode using the shake-flask method. The procedure has been presented as standard in the Organization for Economic Cooperation and Development (OECD) guidelines for testing chemicals. The equipment described above was also used for the determination of the 1-octanol/water partition coefficients. […] The correctness of the obtained value of each compound was verified by checking the mass balance of the starting amount of the compound and the total amount of the compound partitioned between the two phases.
To aim evaluated transfer (partition) thermodynamic functions, the 1-octanol/buffer partition coefficients P^* o/b as the ratio of equilibrium concentrations in the organic (xo) and aqueous phases (xb) expressed in mole fractions were calculated: P* o/b = xo/xb(12)

[1] = pH 7.4, 1-octanol/buffer pH 7.4, 293.15 K
[2] = pH 7.4, 1-octanol/buffer pH 7.4, 298.15 K
[3] = pH 7.4, 1-octanol/buffer pH 7.4, 303.15 K
[4] = pH 7.4, 1-octanol/buffer pH 7.4, 313.15 K
[5] = 1-octanol/buffer pH 7.4, pH 7.4, 1-octanol/buffer pH 7.4, 293.15 K
[6] = 1-octanol/buffer pH 7.4, pH 7.4, 1-octanol/buffer pH 7.4, 298.15 K
[7] = 1-octanol/buffer pH 7.4, pH 7.4, 1-octanol/buffer pH 7.4, 303.15 K
[8] = 1-octanol/buffer pH 7.4, pH 7.4, 1-octanol/buffer pH 7.4, 308.15 K
[9] = 1-octanol/buffer pH 7.4, pH 7.4, 1-octanol/buffer pH 7.4, 313.15 K

Structure (SMILES): Cc1ccc(-n2c(=S)sc3c(=O)n(CCCN4CCN(CC(O)(Cn5cncn5)c5ccc(F)cc5F)CC4)cnc32)cc1 (centres unmarked) [I, 6-[3-[4-[2-(2,4-difluorophenyl)-2-hydroxy-3-(1H-1,2,4-triazol-1-yl)propyl]-1-piperazinyl]propyl]-2,3-dihydro-3-(4-methylphenyl)-2-thioxo-thiazolo[4,5-d]pyrimidin-7(6H)-one]
- sb × 10^6 (concentration in buffer) (293.15 K): 10.2 mol∙L^−1 (printed as sb × 10^6
- so × 10^3 (concentration in 1-octanol) (293.15 K): 2.88 mol∙L^−1 (printed as so × 10^3
- xb × 10^7 (mole fraction in buffer) (293.15 K): 1.82 mole fraction (printed as xb ×
- xo × 10^4 (mole fraction in 1-octanol) (293.15 K): 4.54 mole fraction (printed as xo ×
- sb × 10^6 (concentration in buffer) (298.15 K): 9.11 mol∙L^−1 (printed as sb × 10^6
- so × 10^3 (concentration in 1-octanol) (298.15 K): 2.88 mol∙L^−1 (printed as so × 10^3
- xb × 10^7 (mole fraction in buffer) (298.15 K): 1.63 mole fraction (printed as xb ×
- xo × 10^4 (mole fraction in 1-octanol) (298.15 K): 4.57 mole fraction (printed as xo ×
- sb × 10^6 (concentration in buffer) (303.15 K): 7.95 mol∙L^−1 (printed as sb × 10^6
- so × 10^3 (concentration in 1-octanol) (303.15 K): 2.88 mol∙L^−1 (printed as so × 10^3
- xb × 10^7 (mole fraction in buffer) (303.15 K): 1.43 mole fraction (printed as xb ×
- xo × 10^4 (mole fraction in 1-octanol) (303.15 K): 4.59 mole fraction (printed as xo ×
- sb × 10^6 (concentration in buffer) (308.15 K): 7.16 mol∙L^−1 (printed as sb × 10^6
- so × 10^3 (concentration in 1-octanol) (308.15 K): 2.88 mol∙L^−1 (printed as so × 10^3
- xb × 10^7 (mole fraction in buffer) (308.15 K): 1.29 mole fraction (printed as xb ×
- xo × 10^4 (mole fraction in 1-octanol) (308.15 K): 4.61 mole fraction (printed as xo ×
- logPo/b (308.15 K): 2.60
- sb × 10^6 (concentration in buffer) (313.15 K): 6.38 mol∙L^−1 (printed as sb × 10^6
- so × 10^3 (concentration in 1-octanol) (313.15 K): 2.88 mol∙L^−1 (printed as so × 10^3
- xb × 10^7 (mole fraction in buffer) (313.15 K): 1.15 mole fraction (printed as xb ×
- xo × 10^4 (mole fraction in 1-octanol) (313.15 K): 4.63 mole fraction (printed as xo ×
- logP at 2 days [1]: 3.39
- logD at 2 days [1]: 2.45
- logP at 2 days [2]: 3.44
- logD at 2 days [2]: 2.5
- logP at 2 days [3]: 3.5
- logD at 2 days [3]: 2.56
- logP at 2 days (pH 7.4, 1-octanol/buffer pH 7.4, 308.15 K): 3.55
- logP at 2 days [4]: 3.6
- logD at 2 days [4]: 2.65

Structure (SMILES): O=c1c2sc(=S)n(-c3ccc(F)cc3)c2ncn1CCCN1CCN(CC(O)(Cn2cncn2)c2ccc(F)cc2F)CC1 (centres unmarked) [II, 6-[3-[4-[2-(2,4-difluorophenyl)-2-hydroxy-3-(1H-1,2,4-triazol-1-yl)propyl]-1-piperazinyl]propyl]-2,3-dihydro-3-(4-fluorophenyl)-2-thioxo-thiazolo[4,5-d]pyrimidin-7(6H)-one]
- logP at 2 days [5]: 3.3
- logD at 2 days [5]: 2.36
- logP at 2 days [6]: 3.34
- logP at 2 days [7]: 3.37
- logD at 2 days [7]: 2.43
- logP at 2 days [8]: 3.41
- logP at 2 days [9]: 3.45
- logD at 2 days [9]: 2.5
- sb × 10^5 (concentration in buffer) (293.15 K): 1.47 mol∙L^−1 (printed as sb × 10^5
- so × 10^3 (concentration in 1-octanol) (293.15 K): 3.39 mol∙L^−1 (printed as so × 10^3
- xb × 10^7 (mole fraction in buffer) (293.15 K): 2.67 mole fraction (printed as xb ×
- xo × 10^4 (mole fraction in 1-octanol) (293.15 K): 5.34 mole fraction (printed as xo ×
- sb × 10^5 (concentration in buffer) (298.15 K): 1.35 mol∙L^−1 (printed as sb × 10^5
- so × 10^3 (concentration in 1-octanol) (298.15 K): 3.39 mol∙L^−1 (printed as so × 10^3
- xb × 10^7 (mole fraction in buffer) (298.15 K): 2.45 mole fraction (printed as xb ×
- xo × 10^4 (mole fraction in 1-octanol) (298.15 K): 5.37 mole fraction (printed as xo ×
- logPo/b (298.15 K): 2.40
- sb × 10^5 (concentration in buffer) (303.15 K): 1.25 mol∙L^−1 (printed as sb × 10^5
- so × 10^3 (concentration in 1-octanol) (303.15 K): 3.39 mol∙L^−1 (printed as so × 10^3
- xo × 10^4 (mole fraction in 1-octanol) (303.15 K): 5.39 mole fraction (printed as xo ×
- sb × 10^5 (concentration in buffer) (308.15 K): 1.15 mol∙L^−1 (printed as sb × 10^5
- so × 10^3 (concentration in 1-octanol) (308.15 K): 3.39 mol∙L^−1 (printed as so × 10^3
- xb × 10^7 (mole fraction in buffer) (308.15 K): 2.08 mole fraction (printed as xb ×
- xo × 10^4 (mole fraction in 1-octanol) (308.15 K): 5.42 mole fraction (printed as xo ×
- logPo/b (308.15 K): 2.47
- sb × 10^5 (concentration in buffer) (313.15 K): 1.06 mol∙L^−1 (printed as sb × 10^5
- so × 10^3 (concentration in 1-octanol) (313.15 K): 3.39 mol∙L^−1 (printed as so × 10^3
- xb × 10^7 (mole fraction in buffer) (313.15 K): 1.94 mole fraction (printed as xb ×
- xo × 10^4 (mole fraction in 1-octanol) (313.15 K): 5.44 mole fraction (printed as xo ×

Structure (SMILES): O=c1c2sc(=S)n(-c3ccc(Cl)cc3)c2ncn1CCCN1CCN(CC(O)(Cn2cncn2)c2ccc(F)cc2F)CC1 (centres unmarked) [III, 6-[3-[4-[2-(2,4-difluorophenyl)-2-hydroxy-3-(1H-1,2,4-triazol-1-yl)propyl]-1-piperazinyl]propyl]-2,3-dihydro-3-(4-chlorophenyl)-2-thioxo-thiazolo[4,5-d]pyrimidin-7(6H)-one]
- logP at 2 days [5]: 2.56
- logD at 2 days [5]: 1.62
- logP at 2 days [6]: 2.59
- logP at 2 days [7]: 2.61
- logP at 2 days [8]: 2.64
- logD at 2 days [8]: 1.7
- logP at 2 days [9]: 2.69
- logD at 2 days [9]: 1.73
- sb × 10^6 (concentration in buffer) (293.15 K): 9.29 mol∙L^−1 (printed as sb × 10^6
- so × 10^4 (concentration in 1-octanol) (293.15 K): 3.89 mol∙L^−1 (printed as so × 10^4
- xb × 10^7 (mole fraction in buffer) (293.15 K): 1.69 mole fraction (printed as xb ×
- xo × 10^5 (mole fraction in 1-octanol) (293.15 K): 6.14 mole fraction (printed as xo ×
- sb × 10^6 (concentration in buffer) (298.15 K): 8.77 mol∙L^−1 (printed as sb × 10^6
- so × 10^4 (concentration in 1-octanol) (298.15 K): 3.90 mol∙L^−1 (printed as so × 10^4
- xb × 10^7 (mole fraction in buffer) (298.15 K): 1.60 mole fraction (printed as xb ×
- xo × 10^5 (mole fraction in 1-octanol) (298.15 K): 6.17 mole fraction (printed as xo ×
- logPo/b (298.15 K): 1.65
- sb × 10^6 (concentration in buffer) (303.15 K): 8.29 mol∙L^−1 (printed as sb × 10^6
- so × 10^4 (concentration in 1-octanol) (303.15 K): 3.91 mol∙L^−1 (printed as so × 10^4
- xb × 10^7 (mole fraction in buffer) (303.15 K): 1.51 mole fraction (printed as xb ×
- xo × 10^5 (mole fraction in 1-octanol) (303.15 K): 6.21 mole fraction (printed as xo ×
- logPo/b (303.15 K): 1.67
- sb × 10^6 (concentration in buffer) (308.15 K): 7.80 mol∙L^−1 (printed as sb × 10^6
- so × 10^4 (concentration in 1-octanol) (308.15 K): 3.91 mol∙L^−1 (printed as so × 10^4
- xb × 10^7 (mole fraction in buffer) (308.15 K): 1.42 mole fraction (printed as xb ×
- xo × 10^5 (mole fraction in 1-octanol) (308.15 K): 6.24 mole fraction (printed as xo ×
- sb × 10^6 (concentration in buffer) (313.15 K): 7.36 mol∙L^−1 (printed as sb × 10^6
- so × 10^4 (concentration in 1-octanol) (313.15 K): 3.92 mol∙L^−1 (printed as so × 10^4
- xb × 10^7 (mole fraction in buffer) (313.15 K): 1.35 mole fraction (printed as xb ×
- xo × 10^5 (mole fraction in 1-octanol) (313.15 K): 6.28 mole fraction (printed as xo ×
